In the supplement of paper PMC8617591:

Tests used:
[1] = test system: Mycobacterium tuberculosis Erdman (autoluminescent); experiment: total FIC50 (Loewe) at 50% inhibition, three-drug combination (log2); higher = more antagonistic
Procedure: (§1)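 DiaMOND equipotent three-drug combination dose responses (10 doses, 1.5- or 2-fold spacing, centred on IC90) against autoluminescent M. tuberculosis Erdman in 8 in vitro models. Read-out is OD600, or luminescence for the intracellular and dormancy models, normalised to untreated wells. Hill-fit Einf, AUC25 and GRinf are potency metrics; FIC50 and FIC90 are total Loewe fractional inhibitory concentrations as log2 (negative = synergy).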

[2] = test system: Mycobacterium tuberculosis Erdman (autoluminescent); experiment: total FIC90 (Loewe) at 90% inhibition, three-drug combination (log2); higher = more antagonistic
Procedure: as §1

[3] = test system: Mycobacterium tuberculosis Erdman (autoluminescent); experiment: Einf, fitted maximum growth inhibition of three-drug combination (fraction); higher = stronger maximal inhibition
Procedure: as §1

[4] = test system: Mycobacterium tuberculosis Erdman (autoluminescent); experiment: AUC25, normalised area under dose response up to IC25 (three-drug combination) (fraction (0-1)); higher = more potent at low dose
Procedure: as §1

[5] = test system: Mycobacterium tuberculosis Erdman (autoluminescent); experiment: GRinf, maximum normalised growth rate inhibition (three-drug combination) (unitless (-1 to 1)); higher = less effect (negative = killing)
Procedure: as §1

NNC(=O)c1ccncc1 [isoniazid] + CC(=O)NC[C@H]1CN(c2ccc(N3CCOCC3)c(F)c2)C(=O)O1 [linezolid] + COc1c(N2C[C@@H]3CCCN[C@@H]3C2)c(F)cc2c(=O)c(C(=O)O)cn(C3CC3)c12 [moxifloxacin]
Conditions | AUC25, [4] | Einf, [3] | GRinf, [5] | total FIC50, [1] | total FIC90, [2]
in vitro model: acidic pH 5.7, time point: constant (~7 days, model-specific) | 0.109 | 0.747 | -0.275 | 0.122 | –
in vitro model: acidic pH 5.7, time point: terminal (~4-5 doublings, model-specific) | 0.0728 | 0.923 | -0.258 | 1.49 | 0.715
in vitro model: intracellular J774, time point: constant = terminal | – | 0.893 | -0.0263 | – | 0.67

Conditions | AUC25, [4] | Einf, [3] | GRinf, [5] | total FIC50, [1] | total FIC90, [2]
in vitro model: butyrate, time point: constant (~7 days, model-specific) | 0.086 | 0.917 | 0.00606 | 0.711 | 0.963
in vitro model: butyrate, time point: terminal (~4-5 doublings, model-specific) | 0.0553 | 0.956 | 0.0163 | 0.753 | 0.721
in vitro model: cholesterol 0.05 mM, time point: constant (~7 days, model-specific) | 0.149 | 0.654 | -0.302 | 0.796 | –
in vitro model: cholesterol 0.05 mM, time point: terminal (~4-5 doublings, model-specific) | 0.15 | 0.909 | -0.444 | 4.95 | 0.24
in vitro model: cholesterol-high 0.2 mM, time point: constant (~7 days, model-specific) | 0.114 | 0.933 | -0.214 | 0.427 | 1.53
in vitro model: cholesterol-high 0.2 mM, time point: terminal (~4-5 doublings, model-specific) | 0.105 | 1 | -0.842 | 0.413 | 0.848
in vitro model: dormancy (butyrate + nitrate, low O2), time point: constant (~7 days, model-specific) | 0.0474 | 0.851 | 0.271 | 1.12 | 0.548
in vitro model: dormancy (butyrate + nitrate, low O2), time point: terminal (~4-5 doublings, model-specific) | 0.0316 | 0.974 | -0.0773 | 1 | 0.562
in vitro model: standard 7H9 glycerol, time point: constant = terminal | 0.0712 | 0.97 | -0.21 | 0.644 | 0.854
in vitro model: valerate, time point: constant (~7 days, model-specific) | 0.104 | 0.888 | -0.0253 | 0.337 | –
in vitro model: valerate, time point: terminal (~4-5 doublings, model-specific) | 0.0614 | 0.935 | -0.00928 | 0.575 | 0.805

NNC(=O)c1ccncc1 [isoniazid] + CC(=O)NC[C@H]1CN(c2ccc(N3CCOCC3)c(F)c2)C(=O)O1 [linezolid] + NC(=O)c1cnccn1 [pyrazinamide]
Conditions | AUC25, [4] | Einf, [3] | GRinf, [5] | total FIC50, [1] | total FIC90, [2]
in vitro model: acidic pH 5.7, time point: constant (~7 days, model-specific) | 0.11 | 0.842 | -0.287 | -1.93 | –
in vitro model: acidic pH 5.7, time point: terminal (~4-5 doublings, model-specific) | 0.0984 | 0.983 | -0.282 | -1.83 | -1.21
in vitro model: intracellular J774, time point: constant = terminal | – | 0.956 | -0.246 | – | 0.444

Conditions | AUC25, [4] | Einf, [3] | GRinf, [5] | total FIC50, [1] | total FIC90, [2]
in vitro model: butyrate, time point: constant (~7 days, model-specific) | 0.108 | 0.91 | 0.0266 | -1.9 | 1.62
in vitro model: butyrate, time point: terminal (~4-5 doublings, model-specific) | 0.08 | 0.955 | 0.0226 | -1.67 | -1.24
in vitro model: cholesterol 0.05 mM, time point: constant (~7 days, model-specific) | 0.144 | 0.686 | -0.218 | – | –
in vitro model: cholesterol 0.05 mM, time point: terminal (~4-5 doublings, model-specific) | 0.14 | 0.89 | -0.273 | 4.08 | –
in vitro model: cholesterol-high 0.2 mM, time point: constant (~7 days, model-specific) | 0.0969 | 0.893 | -0.233 | 0.365 | –
in vitro model: cholesterol-high 0.2 mM, time point: terminal (~4-5 doublings, model-specific) | 0.0817 | 1 | -0.765 | 0.683 | 0.315
in vitro model: dormancy (butyrate + nitrate, low O2), time point: constant (~7 days, model-specific) | 0.0523 | 0.9 | 0.189 | -1.89 | -2.36
in vitro model: dormancy (butyrate + nitrate, low O2), time point: terminal (~4-5 doublings, model-specific) | 0.0408 | 0.987 | -0.229 | -1.99 | -2.42
in vitro model: standard 7H9 glycerol, time point: constant = terminal | 0.0756 | 0.939 | -0.0363 | -5.13 | –
in vitro model: valerate, time point: constant (~7 days, model-specific) | 0.0944 | 0.836 | 0.0599 | -2.58 | –
in vitro model: valerate, time point: terminal (~4-5 doublings, model-specific) | 0.0892 | 0.927 | 0.0322 | -2.64 | -3

NNC(=O)c1ccncc1 [isoniazid] + CC(=O)NC[C@H]1CN(c2ccc(N3CCOCC3)c(F)c2)C(=O)O1 [linezolid] + O=[N+]([O-])c1cn2c(n1)OC[C@@H](OCc1ccc(OC(F)(F)F)cc1)C2 [pretomanid]
Conditions | AUC25, [4] | Einf, [3] | GRinf, [5] | total FIC50, [1] | total FIC90, [2]
in vitro model: acidic pH 5.7, time point: constant (~7 days, model-specific) | 0.0901 | 0.793 | -0.0622 | 4.28 | –
in vitro model: acidic pH 5.7, time point: terminal (~4-5 doublings, model-specific) | 0.0757 | 0.953 | -0.252 | 4.74 | 4.06
in vitro model: intracellular J774, time point: constant = terminal | – | 0.984 | -0.382 | – | 1.1

Conditions | AUC25, [4] | Einf, [3] | GRinf, [5] | total FIC50, [1] | total FIC90, [2]
in vitro model: butyrate, time point: constant (~7 days, model-specific) | 0.103 | 0.921 | -0.0322 | 2.79 | 1.15
in vitro model: butyrate, time point: terminal (~4-5 doublings, model-specific) | 0.0738 | 0.963 | -0.0424 | 2.83 | 3.23
in vitro model: cholesterol 0.05 mM, time point: constant (~7 days, model-specific) | 0.129 | 0.69 | -0.147 | 1.32 | –
in vitro model: cholesterol 0.05 mM, time point: terminal (~4-5 doublings, model-specific) | 0.124 | 0.912 | -0.296 | 8.62 | 1.89
in vitro model: cholesterol-high 0.2 mM, time point: constant (~7 days, model-specific) | 0.107 | 0.924 | -0.361 | 0.772 | –
in vitro model: cholesterol-high 0.2 mM, time point: terminal (~4-5 doublings, model-specific) | 0.101 | 0.991 | -0.726 | 0.566 | 1.06
in vitro model: dormancy (butyrate + nitrate, low O2), time point: constant (~7 days, model-specific) | 0.0625 | 0.868 | 0.121 | 4.26 | 4.03
in vitro model: dormancy (butyrate + nitrate, low O2), time point: terminal (~4-5 doublings, model-specific) | 0.0423 | 0.987 | -0.233 | 4.19 | 4.02
in vitro model: standard 7H9 glycerol, time point: constant = terminal | 0.0856 | 0.917 | 0.116 | 4.72 | 6.4
in vitro model: valerate, time point: constant (~7 days, model-specific) | 0.126 | 0.88 | 0.0789 | 2.28 | 8.43
in vitro model: valerate, time point: terminal (~4-5 doublings, model-specific) | 0.0856 | 0.93 | 0.029 | 2.36 | 2.72
